Measured values from ChEMBL document CHEMBL5370578, “Discovery of a potent, orally available tricyclic derivative as a novel BRD4 inhibitor for melanoma” (Bioorg Med Chem, 2023).

Experiments:
[1] = Stability in mouse liver microsomes assessed as intrinsic clearance measured per mg protein
[2] = target: T1, Bromodomain-containing protein 4 (Homo sapiens, UniProt O60885); assay: Displacement of Biotin-tagged [Lys(5,8,12,16)Ac]H4(1 to 21) peptide from GST-tagged BRD4-BD1 (unknown origin) incubated for 3 hrs by HTRF based TR-FRET assay
[3] = Apparent permeability of the compound across apical side to basolateral side in human Caco-2 cells incubated for 2 hrs by LC-MS/MS analysis
[4] = Stability in human liver microsomes assessed as intrinsic clearance measured per mg protein
[5] = AUC (0 to 24 hrs) in Slc:ICR mouse at 1 mg/kg, po measured for 8 to 24 hrs by LC/MS/MS analysis; assay type: ADME, organism-based; parameters: dose 1 mg/kg, time upper 24 hrs, time lower 8 hrs, route po; settings: in vivo
[6] = Half life in Slc:ICR mouse at 0.5 mg/kg, iv measured for 4 to 8 hrs by LC/MS/MS analysis; assay type: ADME, organism-based; settings: in vivo, time 4-8 hrs
[7] = Oral bioavailability in Slc:ICR mouse at 1 mg/kg measured for 8 to 24 hrs by LC/MS/MS analysis; assay type: ADME, organism-based; settings: in vivo, time 8-24 hrs
[8] = in vivo; settings: Slc:ICR, mouse, po, 1 mg/kg
[9] = target: Bromodomain testis-specific protein (Homo sapiens, UniProt Q58F21); assay: Displacement of Biotin-tagged [Lys(5,8,12,16)Ac]H4(1 to 21) peptide from GST-tagged BRDT-BD1 (unknown origin) incubated for 3 hrs by HTRF based TR-FRET assay
[10] = target: Bromodomain-containing protein 3 (Homo sapiens, UniProt Q15059); assay: Displacement of Biotin-tagged [Lys(5,8,12,16)Ac]H4(1 to 21) peptide from GST-tagged BRD3-BD1 (unknown origin) incubated for 3 hrs by HTRF based TR-FRET assay
[11] = Antiproliferative activity against human A375.S2 cells assessed as inhibition of cell growth incubated for 72 hrs by WST-1 assay; assay type: functional, cell-based; settings: A375-S2, 72 h
[12] = target: Bromodomain-containing protein 2 (Homo sapiens, UniProt P25440); assay: Displacement of Biotin-tagged [Lys(5,8,12,16)Ac]H4(1 to 21) peptide from GST-tagged BRD2-BD1 (unknown origin) incubated for 3 hrs by HTRF based TR-FRET assay
[13] = target: T1, Bromodomain-containing protein 4; assay: Displacement of Biotin-tagged [Lys(5,8,12,16)Ac]H4(1 to 21) peptide from BRD4-BD2 (unknown origin) incubated for 3 hrs by HTRF based TR-FRET assay
[14] = Volume of distribution in Slc:ICR mouse at 0.5 mg/kg, iv measured for 4 to 8 hrs by LC/MS/MS analysis; assay type: ADME, organism-based; settings: in vivo, time 4-8 hrs
[15] = Toxicity in CAnN.Cg-Foxnlnu/CrlCrlj mouse xenografted with human A375.S2 cells assessed as body weight loss at 30 to 60 mg/kg administered twice daily for 14 days; assay type: organism-based; settings: in vivo, 336 h, dose 30-60 mg/kg, time 14 day
[16] = target: T1, Bromodomain-containing protein 4; assay: Inhibition of NanoLuc-tagged full length BRD4 (unknown origin) transfected in HEK293 cells coexpressing histone H4-halo-tagged fusion vector preincubated overnight followed by substrate addition and measured after 10 mins by NanoBRET assay; assay type: cell-based
[17] = Total clearance in Slc:ICR mouse at 0.5 mg/kg, iv measured for 4 to 8 hrs by LC/MS/MS analysis; assay type: ADME, organism-based; settings: in vivo, time 4-8 hrs
[18] = Antitumor activity against human A375.S2 cells xenografted CAnN.Cg-Foxnlnu/CrlCrlj mouse model assessed as reduction in tumor growth at 60 mg/kg administered twice daily for 14 days relative to control; assay type: functional; parameters: scale not given: the % may be the effect or the level left; settings: time 14 day
[19] = AUC (0 to 8 hrs) in Slc:ICR mouse at 1 mg/kg, po measured for 8 to 24 hrs by LC/MS/MS analysis; assay type: ADME, organism-based; parameters: time lower 8 hrs, dose 1 mg/kg, time upper 24 hrs, route po; settings: in vivo

Bromodomain-containing protein 2, sequence (P25440 whole entry): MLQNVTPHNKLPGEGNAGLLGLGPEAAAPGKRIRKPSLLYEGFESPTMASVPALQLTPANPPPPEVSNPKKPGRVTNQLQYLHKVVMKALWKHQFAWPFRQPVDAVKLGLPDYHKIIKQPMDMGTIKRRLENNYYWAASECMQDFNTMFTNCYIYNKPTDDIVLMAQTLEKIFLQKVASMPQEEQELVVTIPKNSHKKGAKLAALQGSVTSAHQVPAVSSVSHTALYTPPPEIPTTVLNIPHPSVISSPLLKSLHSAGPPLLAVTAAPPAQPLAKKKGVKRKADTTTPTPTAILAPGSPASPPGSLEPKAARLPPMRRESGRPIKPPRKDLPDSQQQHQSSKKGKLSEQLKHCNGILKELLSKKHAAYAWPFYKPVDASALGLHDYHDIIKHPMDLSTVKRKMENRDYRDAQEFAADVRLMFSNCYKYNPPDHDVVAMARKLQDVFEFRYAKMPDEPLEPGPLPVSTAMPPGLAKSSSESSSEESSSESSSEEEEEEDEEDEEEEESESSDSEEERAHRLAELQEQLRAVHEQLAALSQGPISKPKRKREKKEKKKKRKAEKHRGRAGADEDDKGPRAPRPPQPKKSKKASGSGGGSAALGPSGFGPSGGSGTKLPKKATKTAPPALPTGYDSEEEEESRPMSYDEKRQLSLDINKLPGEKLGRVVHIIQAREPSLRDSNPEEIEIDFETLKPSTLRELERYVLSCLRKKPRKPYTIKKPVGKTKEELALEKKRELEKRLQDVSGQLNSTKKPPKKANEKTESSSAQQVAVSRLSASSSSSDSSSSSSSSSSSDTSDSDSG
Bromodomain-containing protein 3, sequence (Q15059 whole entry): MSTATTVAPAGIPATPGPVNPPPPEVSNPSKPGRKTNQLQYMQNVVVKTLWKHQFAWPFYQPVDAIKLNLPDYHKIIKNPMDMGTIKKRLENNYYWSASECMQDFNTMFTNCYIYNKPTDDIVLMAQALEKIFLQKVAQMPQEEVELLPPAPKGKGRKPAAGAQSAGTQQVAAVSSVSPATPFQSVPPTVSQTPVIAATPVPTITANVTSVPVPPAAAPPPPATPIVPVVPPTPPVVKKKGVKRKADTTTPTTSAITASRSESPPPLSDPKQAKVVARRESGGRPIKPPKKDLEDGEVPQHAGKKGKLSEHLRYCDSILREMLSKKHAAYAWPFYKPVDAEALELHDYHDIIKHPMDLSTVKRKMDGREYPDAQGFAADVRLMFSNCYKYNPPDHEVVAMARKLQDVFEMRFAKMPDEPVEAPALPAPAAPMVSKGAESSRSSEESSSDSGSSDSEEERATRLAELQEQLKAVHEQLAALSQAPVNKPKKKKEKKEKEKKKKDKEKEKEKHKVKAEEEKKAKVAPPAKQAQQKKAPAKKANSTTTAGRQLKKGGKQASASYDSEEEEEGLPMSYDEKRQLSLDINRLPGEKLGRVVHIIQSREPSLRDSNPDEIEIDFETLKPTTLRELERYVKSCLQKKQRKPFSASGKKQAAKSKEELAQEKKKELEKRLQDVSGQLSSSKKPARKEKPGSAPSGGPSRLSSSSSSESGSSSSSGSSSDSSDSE

Row | SMILES | CLH [1] [mL/min] | IC50 [2] [nM] | Papp A→B at 2 h [3] [×10⁻⁶ cm/s] | CLH [4] [mL/min] | also measured
1 | Cc1cc(-c2ccc3c(c2)N(Cc2ccccc2)C(=O)CN3)cn(C)c1=O | – | 122 | – | – | –
2 | Cc1cc(-c2cc3c4c(c2)n(Cc2ccccc2)c(=O)n4CCO3)cn(C)c1=O | 17 | 15 | 12 | – | AUC(0-t) [5]: 2420 ng·h/mL; half-life [6]: 4.1 h; bioavailability [7]: 49%; Cmax [8]: 299 ng/mL; IC50 [9]: 68 nM; IC50 [10]: 25 nM; IC50 [11]: 539 nM; IC50 [12]: 19 nM; IC50 [13]: 55 nM; Vd [14]: 1.18 L/kg; Activity [15]: Non-Toxic; IC50 [16]: 81 nM; clearance [17]: 3.3 mL/min; Activity [18]: 41%
3 | COCCn1c(=O)n(Cc2ccccc2)c2cc(-c3cc(C)c(=O)n(C)c3)ccc21 | – | 45 | – | – | –
4 | CCS(=O)(=O)NCc1cc(-c2cc(C)c(=O)n(C)c2)cc2c1[nH]c(=O)n2Cc1ccccc1 | 66 | 12 | 0.11 | 43 | –
5 | Cc1cc(-c2ccc3cnn(Cc4ccccc4)c3c2)cn(C)c1=O | 42 | 61 | – | 43 | –
6 | CCS(=O)(=O)Cc1cc(-c2cc(C)c(=O)n(C)c2)cc2c1[nH]c(=O)n2Cc1ccccc1 | 11 | 4.2 | 0.02 | 11 | –
7 | Cc1cc(-c2ccc3c(c2)n(Cc2ccccc2)c(=O)n3C(C)C)cn(C)c1=O | 38 | 25 | 14 | 27 | –
8 | CCS(=O)(=O)Cc1cc(-c2cc(C)c(=O)n(C)c2)cc2c1n(C)c(=O)n2Cc1ccccc1 | 34 | 4.8 | – | 14 | –
9 | CCS(=O)(=O)Nc1cc(-c2cc(C)c(=O)n(C)c2)cc2c1[nH]c(=O)n2Cc1ccccc1 | < 9.6 | 19 | 0.05 | < 9.6 | –
10 | CCS(=O)(=O)c1cc(-c2cc(C)c(=O)n(C)c2)cc2c1[nH]c(=O)n2Cc1ccccc1 | – | 112 | – | – | –

More lines, main results first:

Row | CLH [1] [mL/min] | IC50 [2] [nM] | Papp A→B at 2 h [3] [×10⁻⁶ cm/s] | CLH [4] [mL/min] | SMILES | also measured
11 | 53 | 39 | 0.03 | 37 | CCS(=O)(=O)NCc1cc(-c2cc(C)c(=O)n(C)c2)cc2c1n(C)c(=O)n2Cc1ccccc1 | –
12 | – | 157 | – | – | CC[S+]([O-])c1cc(-c2cc(C)c(=O)n(C)c2)cc2c1[nH]c(=O)n2Cc1ccccc1 (centres undefined) | –
13 | – | 94 | – | – | Cc1cc(-c2ccc3ccn(Cc4ccccc4)c3c2)cn(C)c1=O | –
14 | 20 | 50 | 21 | 25 | Cc1cc(-c2ccc3c(c2)n(Cc2ccccc2)c(=O)n3C)cn(C)c1=O | –
15 | 36 | – | – | 65 | Cc1cc(-c2ccc3ncn(Cc4ccccc4)c3c2)cn(C)c1=O | Cmax [8]: < 1 ng/mL
16 | 23 | 38 | – | 49 | Cc1cc(-c2ccc3nnn(Cc4ccccc4)c3c2)cn(C)c1=O | –
17 | 15 | 32 | 5.9 | 29 | Cc1cc(-c2ccc3[nH]c(=O)n(Cc4ccccc4)c3c2)cn(C)c1=O | bioavailability [7]: 70%; AUC(0-t) [19]: 178 ng·h/mL; Cmax [8]: 37 ng/mL; clearance [17]: 40 mL/min
18 | 491 | 42 | – | 352 | Cc1cc(-c2ccc3c(c2)n(Cc2ccccc2)c(=O)n3CC(C)C)cn(C)c1=O | –
